According to patent publication US6573284B1, “Method of treating melanoma” (priority 1996, dated 2003):
Entries after “also recorded” stand apart in the source; their conditions may differ.

Tests used:
mushroom tyrosinase = assay: Oximetry: oxidation of substrates by tyrosinase; type: biochemical; conditions: 100 μM substrate, 165 units of tyrosinase/ml, room temperature; compared with tyrosine
tyrosinase = assay: Release of drug from prodrug upon treatment with tyrosinase (TLC, GCMS); type: biochemical; conditions: DMSO/phosphate buffer pH 7.2, 25° C., 1 hour; TLC and GCMS
[1] = system: human melanoma (C32, G361 and STMl1la) and nonmelanoma derived cell lines (Caki-2 and CHO); type: cell-based

Structure (SMILES) | oxidation by tyrosinase (utilization of oxygen with respect to time) (mushroom tyrosinase) | release of mustard drug upon tyrosinase treatment (tyrosinase) | relative toxicity (inverse of the IC50) [1] | melting point
CC(=O)N[C@@H](Cc1ccc(O)cc1)C(=O)O [N-acetyl tyrosine] | oxidised, but at a lower rate than tyrosine | – | – | –
O=C(NCCc1ccc(O)cc1)Oc1ccc(N(CCCl)CCCl)cc1 [Prodrug (1)] | – | a component of identical Rf to the authentic mustard drug had been produced | – | –
NCCc1ccc(O)c(O)c1 [Compound B] | – | – | essentially non-toxic | –
COc1ccc(O)cc1 [4-Hydroxyanisole, 4-hydroxyanisole] | oxidised, but at a lower rate than tyrosine | – | – | –
O=C(NCCc1ccc(O)c(O)c1)Oc1ccc(N(CCCl)CCCl)cc1 [Compound A, N-(N-bis-chlorethyl-4-amino-phenyloxycarbonyl)-3-hydroxy-tyramine] | oxidised by tyrosinase, although the rate of the reaction was lower than for the normal substrate | – | relatively non-toxic; also recorded: increasing toxicity with tyrosinase activity | 80 °C (dec.)
